# Values quoted from earlier work, collected in patent US20110245202A1, “PHARMACEUTICAL COMPOSITION FOR THE TREATMENT OF RHINITIS” (priority 2003, published 2011).
# Details: fraction of the action of naturally occurring (1R,2S)-ephedrine
smiles,measurement,value
"CN[C@H](C)[C@@H](O)c1ccccc1 [(1S,2R)-ephedrine]",pharmacological action relative to the natural form (−)-ephedrine,approximately one third
